Experimental findings from patent US7709491B2, “Substituted quinazolines as antiviral agents, especially against cytomegaloviruses” (Bayer Schering Pharma Aktiengesellschaft, priority 2002, dated 2010) are described below.

SMILES strings stand for the structures.

Data set [1] in a line: Cytotoxicity on NHDF cells in the anti-HCMV cytopathogenicity test. Format: cell-based. Conditions: human, NHDF cells (human prepuce fibroblasts), 6 days incubation, visual assessment of cytotoxic effects vs untreated cell control. As to the method:
(§1) Anti-HCMV (Anti-Human Cytomegalovirus) Cytopathogenicity Tests The test compounds are employed as 50 millimolar (mM) solutions in dimethyl sulfoxide (DMSO). Ganciclovir, foscamet and cidofovir are used as reference compounds. After addition of in each case 2 μl of the 50, 5, 0.5 and 0.05 mM DMSO stock solutions to 98 μl portions of cell culture medium in row […] for duplicate determinations, 1:2 dilutions are carried out with 50 μl portions of medium up to row 11 of the 96-well plate. The wells in rows 1 and 12 each contain 50 μl of medium. 150 μl of a suspension of 1×10^4 cells (human prepuce fibroblasts [NHDF]) are then pipetted into each of the wells (row 1=cell control) and, in rows 2-12, a mixture of HCMV-infected and uninfected NHDF cells (M.O.I.=0.001-0.002), i.e. 1-2 infected cells per 1000 uninfected cells. Row 12 (without substance) serves as virus control. The final test concentrations are 250-0.0005 μM. The plates are incubated at 37° C./5% CO2 for 6 days, i.e. until all the cells are infected in the virus controls (100% cytopathogenic effect [CPE]). The wells are then fixed and stained by adding a mixture of formalin and Giemsa's dye (30 minutes), washed with double-distilled water and dried in a drying oven at 50° C. The plates are then assessed visually using an overhead microscope (plaque multiplier from Technomara). The following data can be acquired from the test plates: CC50 (NHDF)=substance concentration in […] at which no visible cytotoxic effects on the cells are evident by comparison with the untreated cell control;
In general terms: Cytopathic effects are the visible damage that an infection or toxin causes in cultured cells.

Data set [2] concerns HCMV. Briefly: Anti-HCMV cytopathogenicity test. Format: cell-based, human cytomegalovirus. Conditions: for EC50: inhibition of CPE by 50% vs untreated virus control, HCMV-infected NHDF cells, M.O.I. 0.001-0.002, 6 days; for SI HCMV (selectivity index = CC50 (NHDF)/EC50 (HCMV)): ratio CC50 (NHDF)/EC50 (HCMV). As to the method: Anti-HCMV (Anti-Human Cytomegalovirus) Cytopathogenicity Tests The test compounds are employed as 50 millimolar (mM) solutions in dimethyl sulfoxide (DMSO). Ganciclovir, foscamet and cidofovir are used as reference compounds. After addition of in each case 2 μl of the 50, 5, 0.5 and 0.05 mM DMSO stock solutions to 98 μl portions of cell culture medium in row […] for duplicate determinations, 1:2 dilutions are carried out with 50 μl portions of medium up to row 11 of the 96-well plate. The wells in rows 1 and 12 each contain 50 μl of medium. 150 μl of a suspension of 1×10^4 cells (human prepuce fibroblasts [NHDF]) are then pipetted into each of the wells (row 1=cell control) and, in rows 2-12, a mixture of HCMV-infected and uninfected NHDF cells (M.O.I.=0.001-0.002), i.e. 1-2 infected cells per 1000 uninfected cells. Row 12 (without substance) serves as virus control. The final test concentrations are 250-0.0005 μM. The plates are incubated at 37° C./5% CO2 for 6 days, i.e. until all the cells are infected in the virus controls (100% cytopathogenic effect [CPE]). The wells are then fixed and stained by adding a mixture of formalin and Giemsa's dye (30 minutes), washed with double-distilled water and dried in a drying oven at 50° C. The plates are then assessed visually using an overhead microscope (plaque multiplier from Technomara). The following data can be acquired from the test plates: EC50 (HCMV)=substance concentration in μM which inhibits the CPE (cytopathic effect) by 50% compared with the untreated virus control; SI (selectivity index)=CC50 (NHDF)/EC50 (HCMV).

Data set [3] concerns NHDF cells (human prepuce fibroblasts). Briefly: Cytotoxicity on NHDF cells in the anti-HCMV cytopathogenicity test. It counts as cell-based. Conditions: 6 days incubation, visual assessment of cytotoxic effects vs untreated cell control. As to the method:
as §1

The mark [4] stands for this setting: Human betaherpesvirus 5, NHDF, 144 h.

As a reminder, the CC50 is the concentration giving 50% cytotoxicity. Read a high CC50 as better tolerance by the cells. Usually EC50 stands for the concentration that produces a half-maximal response. Higher therefore signals a need for much substance. With `O=C(O)CC1c2cccc(F)c2N=C(c2ccc(-c3ccc(F)cc3)cc2)N1c1cccc(C(F)(F)F)c1` (racemic) [Example 1], the CC50 at 6 days in data set [1] was 15 µM. In data set [2] (setting [4]), this compound came in with an EC50 of 0.1 µM. Besides, in data set [2], the “SI HCMV (selectivity index = CC50 (NHDF)/EC50 (HCMV))” value was found to be 150.

As to `O=C(O)CC1c2cccc(F)c2N=C(c2ccc(-c3ccc(F)cc3)cc2)N1c1cccc(C(F)(F)F)c1` (racemic) [Example 2, {8-Fluoro-2-(4′-fluoro-1,1′-biphenyl-4-yl)-3-[3-(trifluoromethyl)phenyl]-3,4-dihydro-4-quinazolinyl}acetic acid], the CC50 in data set [3] worked out at 12 µM. For the same compound, in data set [2], the concentration giving a half-maximal response (EC50) came out at 0.07 µM and the “SI HCMV (selectivity index = CC50 (NHDF)/EC50 (HCMV))” value is given as 171.

The compound `Cc1cccc(-c2ccc(C3=Nc4c(F)cccc4C(CC(=O)O)N3c3cccc(C(F)(F)F)c3)cc2)c1` (racemic) [Example 3, {8-Fluoro-2-(3′-methyl-1,1′-biphenyl-4-yl)-3-[3-(trifluoromethyl)phenyl]-3,4-dihydro-4-quinazolinyl}acetic acid] had a half-maximal cytotoxic concentration (CC50) at 6 days in data set [1] of 15 µM. Also, in data set [2], the response was half-maximal at 0.13 µM (EC50) and the “SI HCMV (selectivity index = CC50 (NHDF)/EC50 (HCMV))” value came to 115.

As to `Cc1cccc(-c2ccc(C3=Nc4c(F)cccc4C(CC(=O)O)N3c3cccc(C(F)(F)F)c3)cc2)c1` (racemic) [Example 4, {8-Fluoro-2-(3′-methyl-1,1′-biphenyl-4-yl)-3-[3-(trifluoromethyl)phenyl]-3,4-dihydro-4-quinazolinyl}acetic acid], in data set [3], half-maximal cytotoxicity (CC50) was put at 8.6 µM. In data set [2], the concentration giving a half-maximal response (EC50) was found to be 0.06 µM and the “SI HCMV (selectivity index = CC50 (NHDF)/EC50 (HCMV))” value was found to be 143.

Compound `COc1ccc(C(F)(F)F)cc1N1C(c2ccc(-c3ccc(F)cc3)cc2)=Nc2c(F)cccc2C1CC(=O)O` (racemic) [Example 32, {2-[4-(4-Fluorophenyl)phenyl]-8-fluoro-3-[2-methoxy-5-(trifluoromethyl)phenyl]-3,4-dihydro-4-quinazolinyl}acetic acid] returned a half-maximal cytotoxic concentration (CC50) at 6 days in data set [1] of 15 µM. In data set [2] (setting [4]), this compound yielded an EC50 of 0.01 µM. Besides, the “SI HCMV (selectivity index = CC50 (NHDF)/EC50 (HCMV))” value in data set [2] came to 1500.

In turn, `COc1cccc(-c2ccc(C3=Nc4c(F)cccc4C(CC(=O)O)N3c3cc(C(F)(F)F)ccc3OC)cc2)c1` (racemic) [Example 36, {2-[4-(3-Methoxyphenyl)phenyl]-8-fluoro-3-[2-methoxy-5-(trifluoromethyl)phenyl]-3,4-dihydro-4-quinazolinyl}acetic acid] displayed a CC50 at 6 days in data set [1] of 15 µM. The compound further registered a concentration for a half-maximal effect (EC50) in data set [2] (setting [4]) of 0.01 µM. The “SI HCMV (selectivity index = CC50 (NHDF)/EC50 (HCMV))” value in data set [2] is recorded as 1500.

For the compound `Cc1cc(-c2ccc(C3=Nc4c(F)cccc4C(CC(=O)O)N3c3cccc(C(F)(F)F)c3)cc2)ccc1F` (stereo not drawn) [Example 5, {8-Fluoro-2-(4′-fluoro-3′-methyl-1,1′-biphenyl-4-yl)-3-[3-(trifluoromethyl)phenyl]-3,4-dihydro-4-quinazolinyl}acetic acid], it took 12 µM to reach half-maximal cytotoxicity in data set [1] (CC50 at 6 days). Moreover, in data set [2] (setting [4]), a half-maximal effect (EC50) was put at 0.74 µM. In data set [2], the “SI HCMV (selectivity index = CC50 (NHDF)/EC50 (HCMV))” value is 16.

`O=C(O)CC1c2cccc(F)c2N=C(c2ccc(-c3cccc(F)c3)cc2)N1c1cccc(C(F)(F)F)c1` (stereo not drawn) [Example 6, {8-Fluoro-2-(3′-fluoro-1,1′-biphenyl-4-yl)-3-[3-(trifluoromethyl)phenyl]-3,4-dihydro-4-quinazolinyl}acetic acid] displayed a CC50 at 6 days in data set [1] of 12 µM. Also, in data set [2] (setting [4]), the EC50 came to 0.35 µM. In data set [2], the “SI HCMV (selectivity index = CC50 (NHDF)/EC50 (HCMV))” value was determined as 34.

With `O=C(O)CC1c2cccc(F)c2N=C(c2ccc(-c3ccc(F)cc3)cc2F)N1c1cccc(C(F)(F)F)c1` (stereo not drawn) [Example 7, {2-(3,4′-Difluoro-1,1′-biphenyl-4-yl)-8-fluoro-3-[3-(trifluoromethyl)phenyl]-3,4-dihydro-4-quinazolinyl}acetic acid], in data set [1], it took 31 µM to reach half-maximal cytotoxicity (CC50 at 6 days). Moreover, the response in data set [2] (setting [4]) was half-maximal at 1.8 µM (EC50). For the same compound, the “SI HCMV (selectivity index = CC50 (NHDF)/EC50 (HCMV))” value in data set [2] is reported as 17.
